Numbers after ± are expanded uncertainties.
Legend:
[1] = Liquid; for viscosity / mass density: 101 kPa; for viscosity: Concentric cylinders viscometry; for mass density: Vibrating tube method; for vapor or sublimation pressure: Closed cell (Static) method
[2] = wn = mass fraction of the nth substance listed; conditions: 101 kPa, Liquid; for viscosity: Concentric cylinders viscometry; for mass density: Vibrating tube method

CC(O)CN(C)C (stereo not drawn) [1-(dimethylamino)-2-propanol]
[1]
Conditions | mass density [kg/m3] | vapor or sublimation pressure [kPa] | viscosity [mPa·s]
298.15 K | 845.4 ± 2.4 | – | 1.332 ± 0.1
298.49 K | – | 4.13 ± 2 | –
303.15 K | 840.3 ± 2.4 | – | 1.183 ± 0.1
303.88 K | – | 6.59 ± 2 | –
308.15 K | 835.5 ± 2.4 | – | 1.059 ± 0.1
308.43 K | – | 8.03 ± 2 | –
313.15 K | 830.7 ± 2.4 | – | 0.955 ± 0.1
313.34 K | – | 10.34 ± 2 | –
318.15 K | 825.8 ± 2.4 | – | 0.866 ± 0.1
318.26 K | – | 12.51 ± 2 | –
323.15 K | 820.9 ± 2.4 | – | 0.788 ± 0.1
323.6 K | – | 15.84 ± 2 | –
328.15 K | 816 ± 2.4 | – | 0.72 ± 0.1
328.26 K | – | 18.73 ± 2 | –
333.04 K | – | 23.06 ± 2 | –
333.15 K | 811.1 ± 2.4 | – | 0.662 ± 0.1

CN(CCO)CCO [N-methyldiethanolamine]
[1]
Conditions | mass density [kg/m3] | viscosity [mPa·s]
298.15 K | 1036.9 ± 2.4 | 77.29 ± 0.88
308.15 K | 1029.8 ± 2.4 | 44.99 ± 0.51
323.15 K | 1018.3 ± 2.4 | 22.6 ± 0.34

CN(CCO)CCO [N-methyldiethanolamine] + O
[2]
Conditions | mass density, 298.15 K [kg/m3] | mass density, 308.15 K [kg/m3] | mass density, 323.15 K [kg/m3] | viscosity, 298.15 K [mPa·s] | viscosity, 308.15 K [mPa·s] | viscosity, 323.15 K [mPa·s]
w1 = 0.2 | 1014.8 ± 2.4 | 1010.6 ± 2.4 | 1002.9 ± 2.4 | 1.932 ± 0.1 | 1.51 ± 0.1 | 1.061 ± 0.1
w1 = 0.3 | 1025.2 ± 2.4 | 1021.1 ± 2.4 | 1013.2 ± 2.4 | 3.081 ± 0.1 | 2.263 ± 0.1 | 1.521 ± 0.1
w1 = 1 | 1036.9 ± 2.4 | 1029.8 ± 2.4 | 1018.3 ± 2.4 | 77.29 ± 0.88 | 44.99 ± 0.51 | 22.6 ± 0.34

Reference: the NIST ThermoML archive (doi:10.1016/j.fluid.2017.09.019)
